# Measured values: US9670230B2, “Heteroaryl compounds and methods of use thereof” (SUNOVION PHARMACEUTICALS INC., priority 2012, dated 2017)
# Biological target: recombinant human PDE-10 enzyme (Homo sapiens (Human), UniProt Q9Y233)
# Assay: Molecular Devices IMAP PDE Fluorescence Polarization assay, human PDE-10 inhibition (enzyme assay IC50)
# Format: biochemical
# Conditions: recombinant human PDE-10 expressed in baculoviral system; Fluorescein-labeled cAMP/cGMP substrate; 40-minute incubation at 37° C.
# Experimental: In one embodiment, the compounds provided herein were assayed for their ability to inhibit human PDE-10A. In one embodiment, the activities of the compounds were determined using the Molecular Devices IMAP PDE Fluorescence Polarization assay using recombinant human PDE-10 enzyme expressed in a baculoviral system. Briefly, 10 μL of a compound (0.2 nM-20 μM) was added to either a 96-well half area black plate or a 384-well black plate along with 10 μL of Fluorescein-labeled cAMP/cGMP substrate as per manufacturer's instructions and 10 μL of PDE enzyme (activity 0.1 U). Following a 40-minute incubation at 37° C., 60 μL of IMAP binding reagent was added. The plate was then read on a Perkin Elmer Victor (480-535 nm). The data was analyzed using Prism Software (GraphPad Inc, San Diego, Calif.).
# Chain of recombinant human PDE-10 enzyme (Q9Y233 whole entry): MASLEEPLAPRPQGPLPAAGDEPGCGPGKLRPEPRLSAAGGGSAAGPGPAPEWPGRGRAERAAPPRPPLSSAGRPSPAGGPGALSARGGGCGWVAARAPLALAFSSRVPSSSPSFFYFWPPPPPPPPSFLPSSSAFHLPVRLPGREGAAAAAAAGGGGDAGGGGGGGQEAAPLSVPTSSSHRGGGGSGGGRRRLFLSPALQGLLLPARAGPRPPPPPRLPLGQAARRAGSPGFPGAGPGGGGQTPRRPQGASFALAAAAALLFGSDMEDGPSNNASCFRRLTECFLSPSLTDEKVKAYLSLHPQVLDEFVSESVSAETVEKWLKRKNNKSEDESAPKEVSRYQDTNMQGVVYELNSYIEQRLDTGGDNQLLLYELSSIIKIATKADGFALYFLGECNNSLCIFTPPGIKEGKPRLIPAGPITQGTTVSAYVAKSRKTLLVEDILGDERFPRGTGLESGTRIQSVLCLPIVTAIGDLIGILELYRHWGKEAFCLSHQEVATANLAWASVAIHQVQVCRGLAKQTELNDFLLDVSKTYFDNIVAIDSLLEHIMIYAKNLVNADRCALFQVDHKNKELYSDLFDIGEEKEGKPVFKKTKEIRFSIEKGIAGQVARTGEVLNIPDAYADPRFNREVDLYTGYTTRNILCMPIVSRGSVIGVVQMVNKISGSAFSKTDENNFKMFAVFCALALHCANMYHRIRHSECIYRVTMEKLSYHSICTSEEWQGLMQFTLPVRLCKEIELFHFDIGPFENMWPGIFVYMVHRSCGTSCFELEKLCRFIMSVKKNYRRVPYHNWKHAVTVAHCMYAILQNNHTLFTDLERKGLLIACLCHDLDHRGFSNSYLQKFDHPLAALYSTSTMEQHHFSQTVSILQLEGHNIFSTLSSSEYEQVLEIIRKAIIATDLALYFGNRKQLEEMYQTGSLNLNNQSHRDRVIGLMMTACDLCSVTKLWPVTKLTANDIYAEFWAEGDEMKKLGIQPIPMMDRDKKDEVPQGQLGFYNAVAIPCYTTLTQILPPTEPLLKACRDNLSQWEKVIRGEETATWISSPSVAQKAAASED
row,Compound,IC50 [nM]
1,"CCC1COc2ccc(CCc3nc4c(C)ncc(C)n4n3)nc2N1C (stereo not drawn) [Compound 11, 6-(2-(5,8-dimethyl-[1,2,4]triazolo[1,5-a]pyrazin-2-yl)ethyl)-3-ethyl-4-methyl-3,4-dihydro-2H-pyrido[3,2-b][1,4]oxazine]",> 500
2,"Cc1ncc(C)n2nc(CCc3ccc4c(n3)NC(C)CC4)nc12 (stereo not drawn) [Compound 3, 7-(2-(5,8-dimethyl-[1,2,4]triazolo[1,5-a]pyrazin-2-yl)ethyl)-2-methyl-1,2,3,4-tetrahydro-1,8-naphthyridine]",10 to 100
3,"Cc1ncc(C)n2nc(CCc3ccc4c(n3)N(C)C(C)CO4)nc12 (stereo not drawn) [Compound 10, 6-(2-(5,8-dimethyl-[1,2,4]triazolo[1,5-a]pyrazin-2-yl)ethyl)-3,4-dimethyl-3,4-dihydro-2H-pyrido[3,2-b][1,4]oxazine]",100 to 500
4,"Cc1ncc(C)n2nc(CCc3ccc4c(n3)N[C@H](C)CC4)nc12 [Compound 4, (R)-7-(2-(5,8-dimethyl-[1,2,4]triazolo[1,5-a]pyrazin-2-yl)ethyl)-2-methyl-1,2,3,4-tetrahydro-1,8-naphthyridine]",10 to 100
5,"Cc1ncc(C)n2nc(CCc3ccc4c(n3)NC(C)(C)CO4)nc12 [Compound 12, 6-(2-(5,8-dimethyl-[1,2,4]triazolo[1,5-a]pyrazin-2-yl)ethyl)-3,3-dimethyl-3,4-dihydro-2H-pyrido[3,2-b][1,4]oxazine]",100 to 500
6,"COc1ccc2ccc(CCc3nc4c(C)ncc(C)n4n3)nc2c1 [Compound 2, 2-(2-(5,8-dimethyl-[1,2,4]triazolo[1,5-a]pyrazin-2-yl)ethyl)-7-methoxyquinoline]",≤ 10
7,"Cc1ncc(C)n2nc(CCc3ccc4c(n3)N[C@@H](C)CC4)nc12 [Compound 5, (S)-7-(2-(5,8-dimethyl-[1,2,4]triazolo[1,5-a]pyrazin-2-yl)ethyl)-2-methyl-1,2,3,4-tetrahydro-1,8-naphthyridine]",10 to 100
8,"Cc1ccc2ccc(CCc3nc4c(C)ncc(C)n4n3)nc2c1 [Compound 1, 2-(2-(5,8-dimethyl-[1,2,4]triazolo[1,5-a]pyrazin-2-yl)ethyl)-7-methylquinoline]",≤ 10

# Next, values leading:
row,IC50 [nM],Compound
1,10 to 100,"CCC1COc2ccc(CCc3nc4c(C)ncc(C)n4n3)nc2N1 (stereo not drawn) [Compound 9, 6-(2-(5,8-dimethyl-[1,2,4]triazolo[1,5-a]pyrazin-2-yl)ethyl)-3-ethyl-3,4-dihydro-2H-pyrido[3,2-b][1,4]oxazine]"
2,100 to 500,"Cc1ncc(C)n2nc(CCc3ccc4c(n3)N[C@@H](C)CO4)nc12 [Compound 8, (S)-6-(2-(5,8-dimethyl-[1,2,4]triazolo[1,5-a]pyrazin-2-yl)ethyl)-3-methyl-3,4-dihydro-2H-pyrido[3,2-b][1,4]oxazine]"
3,10 to 100,"Cc1ncc(C)n2nc(CCc3ccc4c(n3)NC(C)CO4)nc12 (stereo not drawn) [Compound 6, 6-(2-(5,8-dimethyl-[1,2,4]triazolo[1,5-a]pyrazin-2-yl)ethyl)-3-methyl-3,4-dihydro-2H-pyrido[3,2-b][1,4]oxazine]"
4,10 to 100,"Cc1ncc(C)n2nc(CCc3ccc4c(n3)N[C@H](C)CO4)nc12 [Compound 7, (R)-6-(2-(5,8-dimethyl-[1,2,4]triazolo[1,5-a]pyrazin-2-yl)ethyl)-3-methyl-3,4-dihydro-2H-pyrido[3,2-b][1,4]oxazine]"
